Data reported in ChEMBL document CHEMBL1201862, “PubChem BioAssay data set” (2004).
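Assay format: 96-well plates, 48-hour exposure. GI50 is the concentration that inhibits growth by half.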 Activity calls are given as the source filed them. Cut-off read from the data, not from the text of the source: active = GI50 up to about 1.1 µM and inactive = higher.

Assays:
Experiment in all cases: DTP human tumour cell line panel, 48 h
NCI-H460 = tested on: NCI-H460
SR = tested on: SR
ACHN = tested on: ACHN
NCI-H522 = tested on: NCI-H522
DU-145 = tested on: DU-145
LOX IMVI = tested on: LOX IMVI
UO-31 = tested on: UO-31
MOLT-4 = tested on: MOLT-4
UACC-257 = tested on: UACC-257
SN12C = tested on: SN12C
MDA-MB-231 = tested on: MDA-MB-231
786-0 = tested on: 786-0
MDA-MB-435 = tested on: MDA-MB-435
HOP-92 = tested on: HOP-92
SK-MEL-2 = tested on: SK-MEL-2
SF-295 = tested on: SF-295
NCI/ADR-RES = tested on: NCI/ADR-RES
OVCAR-3 = tested on: OVCAR-3
A549 = tested on: A549
SK-MEL-28 = tested on: SK-MEL-28
IGROV-1 = tested on: IGROV-1
Malme-3M = tested on: Malme-3M
K562 = tested on: K562
T47D = tested on: T47D
KM12 = tested on: KM12
UACC-62 = tested on: UACC-62
HCT-15 = tested on: HCT-15
MCF7 = tested on: MCF7
M14 = tested on: M14
PC-3 = tested on: PC-3
HOP-62 = tested on: HOP-62
SW-620 = tested on: SW-620
HT-29 = tested on: HT-29
COLO 205 = tested on: COLO 205
EKVX = tested on: EKVX
OVCAR-8 = tested on: OVCAR-8
NCI-H23 = tested on: NCI-H23
U-251 = tested on: U-251
MDA-N = tested on: MDA-N
BT-549 = tested on: BT-549
OVCAR-5 = tested on: OVCAR-5
CAKI-1 = tested on: CAKI-1
NCI-H226 = tested on: NCI-H226
SF-268 = tested on: SF-268
SNB-75 = tested on: SNB-75
SK-MEL-5 = tested on: SK-MEL-5
TK-10 = tested on: TK-10
HCT-116 = tested on: HCT-116
HCC 2998 = tested on: HCC 2998
A498 = tested on: A498
OVCAR-4 = tested on: OVCAR-4
SF-539 = tested on: SF-539
SNB-19 = tested on: SNB-19
RPMI-8226 = tested on: RPMI-8226
Hs-578T = tested on: Hs-578T
SK-OV-3 = tested on: SK-OV-3
HL-60 = tested on: HL-60
RXF 393 = tested on: RXF 393
CCRF-CEM = tested on: CCRF-CEM

Cc1oc2c(c1C)S(=O)(=O)C(C#N)=CN2
GI50 (NCI-H460): > 100 µM (inactive)
GI50 (SR): > 100 µM (inactive)
GI50 (ACHN): > 100 µM (inactive)
GI50 (NCI-H522): > 100 µM (inactive)
GI50 (DU-145): > 100 µM (inactive)
GI50 (LOX IMVI): > 100 µM (inactive)
GI50 (UO-31): > 100 µM (inactive)
GI50 (MOLT-4): > 100 µM (inactive)
GI50 (UACC-257): > 100 µM (inactive)
GI50 (SN12C): > 100 µM (inactive)
GI50 (MDA-MB-231): > 100 µM (inactive)
GI50 (786-0): > 100 µM (inactive)
GI50 (MDA-MB-435): > 100 µM (inactive)
GI50 (HOP-92): > 100 µM (inactive)
GI50 (SK-MEL-2): > 100 µM (inactive)
GI50 (SF-295): > 100 µM (inactive)
GI50 (NCI/ADR-RES): > 100 µM (inactive)
GI50 (OVCAR-3): > 100 µM (inactive)
GI50 (A549): > 100 µM (inactive)
GI50 (SK-MEL-28): > 100 µM (inactive)
GI50 (IGROV-1): > 100 µM (inactive)
GI50 (Malme-3M): 42.2 µM (inactive)
GI50 (K562): > 100 µM (inactive)
GI50 (T47D): > 100 µM (inactive)
GI50 (KM12): > 100 µM (inactive)
GI50 (UACC-62): > 100 µM (inactive)
GI50 (HCT-15): > 100 µM
GI50 (MCF7): > 100 µM (inactive)
GI50 (M14): > 100 µM (inactive)
GI50 (PC-3): > 100 µM (inactive)
GI50 (HOP-62): > 100 µM (inactive)
GI50 (SW-620): > 100 µM (inactive)
GI50 (HT-29): > 100 µM (inactive)
GI50 (COLO 205): > 100 µM (inactive)
GI50 (EKVX): > 100 µM (inactive)
GI50 (OVCAR-8): > 100 µM (inactive)
GI50 (NCI-H23): > 100 µM (inactive)
GI50 (U-251): > 100 µM (inactive)
GI50 (MDA-N): > 100 µM (inactive)
GI50 (BT-549): > 100 µM (inactive)
GI50 (OVCAR-5): > 100 µM (inactive)
GI50 (CAKI-1): > 100 µM (inactive)
GI50 (NCI-H226): > 100 µM (inactive)
GI50 (SF-268): > 100 µM (inactive)
GI50 (SNB-75): 65.3 µM (inactive)
GI50 (SK-MEL-5): > 100 µM (inactive)
GI50 (TK-10): > 100 µM (inactive)
GI50 (HCT-116): > 100 µM (inactive)
GI50 (HCC 2998): > 100 µM (inactive)
GI50 (A498): > 100 µM (inactive)
GI50 (OVCAR-4): > 100 µM (inactive)
GI50 (SF-539): > 100 µM (inactive)
GI50 (SNB-19): > 100 µM (inactive)
GI50 (RPMI-8226): > 100 µM (inactive)
GI50 (Hs-578T): > 100 µM (inactive)
GI50 (SK-OV-3): > 100 µM (inactive)

Cc1ccc(/C=N/Nc2cc(C)c3ccccc3n2)s1
GI50 (SR): 6.38 µM (inactive)
GI50 (ACHN): 20.1 µM (inactive)
GI50 (NCI-H522): 4.06 µM (inactive)
GI50 (DU-145): > 10 µM (inactive)
GI50 (LOX IMVI): 10.3 µM (inactive)
GI50 (UO-31): > 100 µM (inactive)
GI50 (MOLT-4): 1.42 µM (inactive)
GI50 (UACC-257): 7.53 µM (inactive)
GI50 (SN12C): 13.1 µM (inactive)
GI50 (MDA-MB-231): 0.44 µM (active)
GI50 (786-0): 18.7 µM (inactive)
GI50 (MDA-MB-435): 21.2 µM (inactive)
GI50 (HOP-92): 27.2 µM (inactive)
GI50 (SK-MEL-2): 34.1 µM (inactive)
GI50 (SF-295): 15.1 µM (inactive)
GI50 (NCI/ADR-RES): 11.1 µM (inactive)
GI50 (OVCAR-3): 2.65 µM (inactive)
GI50 (A549): 16.5 µM (inactive)
GI50 (SK-MEL-28): 20.3 µM (inactive)
GI50 (IGROV-1): 10.2 µM (inactive)
GI50 (Malme-3M): 5.75 µM (inactive)
GI50 (K562): 7 µM (inactive)
GI50 (T47D): 5.48 µM (inactive)
GI50 (KM12): 16.4 µM (inactive)
GI50 (UACC-62): 23.4 µM (inactive)
GI50 (HCT-15): 7.36 µM
GI50 (MCF7): 12 µM (inactive)
GI50 (HL-60): 33.2 µM (inactive)
GI50 (M14): 13.7 µM (inactive)
GI50 (PC-3): 14 µM (inactive)
GI50 (HOP-62): 15.7 µM (inactive)
GI50 (SW-620): 21.7 µM (inactive)
GI50 (HT-29): 3.85 µM (inactive)
GI50 (COLO 205): 4.71 µM (inactive)
GI50 (EKVX): 4.84 µM (inactive)
GI50 (OVCAR-8): 23.2 µM (inactive)
GI50 (NCI-H23): 17.5 µM (inactive)
GI50 (U-251): 16.8 µM (inactive)
GI50 (MDA-N): 13.8 µM (inactive)
GI50 (RXF 393): 23.3 µM (inactive)
GI50 (BT-549): 21.3 µM (inactive)
GI50 (OVCAR-5): 15.6 µM (inactive)
GI50 (CAKI-1): 11.4 µM (inactive)
GI50 (NCI-H226): 14 µM (inactive)
GI50 (SF-268): 26.1 µM (inactive)
GI50 (SNB-75): 31.6 µM (inactive)
GI50 (SK-MEL-5): 8.3 µM (inactive)
GI50 (TK-10): 30.8 µM (inactive)
GI50 (HCT-116): 3.85 µM (inactive)
GI50 (CCRF-CEM): 13.1 µM (inactive)
GI50 (HCC 2998): 15.3 µM (inactive)
GI50 (OVCAR-4): 20 µM (inactive)
GI50 (SF-539): 21.3 µM (inactive)
GI50 (SNB-19): 41.6 µM (inactive)
GI50 (RPMI-8226): 3.91 µM (inactive)
GI50 (Hs-578T): 31.5 µM (inactive)
GI50 (SK-OV-3): 19.3 µM (inactive)

CC(C)(C)c1ccc(C(O)(c2ccc(C(C)(C)C)cc2)c2ccc(C(C)(C)C)cc2)cc1
GI50 (NCI-H460): > 100 µM (inactive)
GI50 (SR): > 100 µM (inactive)
GI50 (ACHN): > 100 µM (inactive)
GI50 (NCI-H522): > 100 µM (inactive)
GI50 (DU-145): > 100 µM (inactive)
GI50 (LOX IMVI): > 100 µM (inactive)
GI50 (UO-31): > 100 µM (inactive)
GI50 (MOLT-4): > 100 µM (inactive)
GI50 (SN12C): > 100 µM (inactive)
GI50 (MDA-MB-231): > 100 µM (inactive)
GI50 (786-0): > 100 µM (inactive)
GI50 (MDA-MB-435): > 100 µM (inactive)
GI50 (SK-MEL-2): > 100 µM (inactive)
GI50 (SF-295): > 100 µM (inactive)
GI50 (NCI/ADR-RES): > 100 µM (inactive)
GI50 (OVCAR-3): > 100 µM (inactive)
GI50 (A549): > 100 µM (inactive)
GI50 (SK-MEL-28): > 100 µM (inactive)
GI50 (IGROV-1): > 100 µM (inactive)
GI50 (Malme-3M): 6.92 µM (inactive)
GI50 (K562): > 100 µM (inactive)
GI50 (T47D): > 100 µM (inactive)
GI50 (KM12): > 100 µM (inactive)
GI50 (UACC-62): > 100 µM (inactive)
GI50 (HCT-15): > 100 µM
GI50 (MCF7): > 100 µM (inactive)
GI50 (HL-60): > 100 µM (inactive)
GI50 (M14): > 100 µM (inactive)
GI50 (PC-3): > 100 µM (inactive)
GI50 (HOP-62): > 100 µM (inactive)
GI50 (SW-620): > 100 µM (inactive)
GI50 (HT-29): > 100 µM (inactive)
GI50 (COLO 205): > 100 µM (inactive)
GI50 (EKVX): > 100 µM (inactive)
GI50 (OVCAR-8): > 100 µM (inactive)
GI50 (NCI-H23): > 100 µM (inactive)
GI50 (U-251): > 100 µM (inactive)
GI50 (MDA-N): > 100 µM (inactive)
GI50 (BT-549): > 100 µM (inactive)
GI50 (OVCAR-5): > 100 µM (inactive)
GI50 (CAKI-1): > 100 µM (inactive)
GI50 (NCI-H226): > 100 µM (inactive)
GI50 (SF-268): > 100 µM (inactive)
GI50 (SNB-75): > 100 µM (inactive)
GI50 (SK-MEL-5): > 100 µM (inactive)
GI50 (TK-10): > 100 µM (inactive)
GI50 (HCT-116): > 100 µM (inactive)
GI50 (CCRF-CEM): > 100 µM (inactive)
GI50 (HCC 2998): > 100 µM (inactive)
GI50 (A498): > 100 µM (inactive)
GI50 (OVCAR-4): > 100 µM (inactive)
GI50 (SF-539): > 100 µM (inactive)
GI50 (SNB-19): > 100 µM (inactive)
GI50 (RPMI-8226): 52.2 µM (inactive)
GI50 (Hs-578T): 70.5 µM (inactive)
GI50 (SK-OV-3): > 100 µM (inactive)
